Experimental data published in ChEMBL document CHEMBL1949511, “Asymmetrical 2,6-bis(benzylidene)cyclohexanones: Synthesis, cytotoxic activity and QSAR study” (Eur J Med Chem, 2012).
Values after ≈ are worked out from the molar mass of the structure shown.

What was measured:
[1] = tested on: MDA-MB-231; assay: Cytotoxicity against human MDA-MB-231 cells by MTT assay; format: functional, cell-based
[2] = tested on: SK-N-MC; assay: Cytotoxicity against human SK-N-MC cells by MTT assay; format: functional, cell-based
[3] = tested on: MCF7; assay: Cytotoxicity against human MCF7 cells by MTT assay; format: functional, cell-based
[4] = tested on: MDA-MB-231; assay: Ratio of etoposide IC50 to compound IC50 for human MDA-MB-231 cells by MTT assay; format: functional
[5] = tested on: MCF7; assay: Ratio of etoposide IC50 to compound IC50 for human MCF7 cells by MTT assay; format: functional
[6] = tested on: SK-N-MC; assay: Ratio of etoposide IC50 to compound IC50 for human SK-N-MC cells by MTT assay; format: functional

| Structure (SMILES) | IC50 [1] [µg/mL] | IC50 [2] [µg/mL] | IC50 [3] [µg/mL] | Ratio IC50 [4] | Ratio IC50 [5] | Ratio IC50 [6] |
| --- | --- | --- | --- | --- | --- | --- |
| COc1cc(/C=C2\CCC/C(=C\c3ccc([N+](=O)[O-])cc3)C2=O)cc(Br)c1OC | 8.71 (≈ 19 µM) | 9.86 (≈ 21.5 µM) | 11 (≈ 24.1 µM) |  |  |  |
| CCOc1c(Br)cc(/C=C2\CCC/C(=C\c3ccc([N+](=O)[O-])cc3)C2=O)cc1OC | 34.7 (≈ 73.5 µM) | 3.91 (≈ 8.28 µM) | 3.08 (≈ 6.52 µM) |  |  |  |
| COc1cccc(/C=C2\CCC/C(=C\c3ccc([N+](=O)[O-])cc3)C2=O)c1 | 51.4 (≈ 147 µM) | 11.5 (≈ 33 µM) | 5.82 (≈ 16.7 µM) |  |  |  |
| O=C1/C(=C/c2ccc(Cl)cc2)CCC/C1=C\c1ccc([N+](=O)[O-])cc1 | 12.4 (≈ 35.1 µM) | 14 (≈ 39.7 µM) | 1.02 (≈ 2.88 µM) |  |  |  |
| COc1cc(/C=C2\CCC/C(=C\c3ccc([N+](=O)[O-])cc3)C2=O)cc(Br)c1O | > 100 | 16.8 (≈ 37.8 µM) | 4.93 (≈ 11.1 µM) |  |  |  |
| COc1ccc(/C=C2\CCC/C(=C\c3ccccc3[N+](=O)[O-])C2=O)cc1 | 45 (≈ 129 µM) | 75 (≈ 215 µM) | 11.2 (≈ 32.1 µM) |  |  |  |
| O=C1/C(=C/c2cccc(Cl)c2)CCC/C1=C\c1cccc([N+](=O)[O-])c1 | 5.01 (≈ 14.2 µM) | 4.15 (≈ 11.7 µM) | 5.15 (≈ 14.6 µM) |  |  |  |
| CCCOc1c(Br)cc(/C=C2\CCC/C(=C\c3cccc([N+](=O)[O-])c3)C2=O)cc1OC | 2.99 (≈ 6.15 µM) | 1.51 (≈ 3.1 µM) | 0.85 (≈ 1.75 µM) | 7 | 7 | 7 |
| COc1cc(/C=C2\CCC/C(=C\c3ccccc3[N+](=O)[O-])C2=O)cc(Br)c1OC | 8.99 (≈ 19.6 µM) | 6.24 (≈ 13.6 µM) | 3.35 (≈ 7.31 µM) |  |  |  |
| COc1cc([C@@H]2c3cc4c(cc3[C@@H](O[C@@H]3O[C@@H]5CO[C@@H](C)O[C@H]5[C@H](O)[C@H]3O)[C@H]3COC(=O)[C@H]23)OCO4)cc(OC)c1O [ETOPOSIDE] | 20.5 (≈ 34.9 µM) | 14 (≈ 23.9 µM) | 18.4 (≈ 31.3 µM) |  |  |  |
| COc1cccc(/C=C2\CCC/C(=C\c3cccc([N+](=O)[O-])c3)C2=O)c1 | 13.2 (≈ 37.7 µM) | 4.94 (≈ 14.1 µM) | 4.17 (≈ 11.9 µM) |  |  |  |
| COc1cccc(/C=C2\CCC/C(=C\c3ccc([N+](=O)[O-])cc3)C2=O)c1OC | 6.73 (≈ 17.7 µM) | 22.1 (≈ 58.4 µM) | 13.3 (≈ 35.1 µM) |  |  |  |
| COc1ccc(/C=C2\CCC/C(=C\c3cccc([N+](=O)[O-])c3)C2=O)cc1 | 44.7 (≈ 128 µM) | 10.4 (≈ 29.7 µM) | 5.71 (≈ 16.3 µM) |  |  |  |
| COc1cc(/C=C2\CCC/C(=C\c3ccc([N+](=O)[O-])cc3)C2=O)ccc1O | 13.1 (≈ 35.8 µM) | 48 (≈ 131 µM) | 7.05 (≈ 19.3 µM) |  |  |  |
| COc1cc(/C=C2\CCC/C(=C\c3cccc([N+](=O)[O-])c3)C2=O)cc(Br)c1OC | 13.9 (≈ 30.4 µM) | 16.7 (≈ 36.4 µM) | 4.72 (≈ 10.3 µM) |  |  |  |
| O=C1/C(=C/c2ccc([N+](=O)[O-])cc2)CCC/C1=C\c1cccc([N+](=O)[O-])c1 | 8.85 (≈ 24.3 µM) | 17.9 (≈ 49.1 µM) | 8.4 (≈ 23.1 µM) |  |  |  |
| CCCOc1c(Br)cc(/C=C2\CCC/C(=C\c3ccccc3[N+](=O)[O-])C2=O)cc1OC | 1.99 (≈ 4.09 µM) | 3.5 (≈ 7.2 µM) | 4.14 (≈ 8.51 µM) | 10 |  |  |
| CCCOc1c(Br)cc(/C=C2\CCC/C(=C\c3ccc([N+](=O)[O-])cc3)C2=O)cc1OC | 4.01 (≈ 8.24 µM) | 23.3 (≈ 47.8 µM) | 7.98 (≈ 16.4 µM) |  |  |  |
| COc1cccc(/C=C2\CCC/C(=C\c3ccccc3[N+](=O)[O-])C2=O)c1 | 14.3 (≈ 41 µM) | 4.49 (≈ 12.9 µM) | 5.62 (≈ 16.1 µM) |  |  |  |
| COc1cccc(/C=C2\CCC/C(=C\c3cccc([N+](=O)[O-])c3)C2=O)c1OC | 5.59 (≈ 14.7 µM) | 10.1 (≈ 26.6 µM) | 5.14 (≈ 13.5 µM) |  |  |  |
| CCCCOc1c(Br)cc(/C=C2\CCC/C(=C\c3cccc([N+](=O)[O-])c3)C2=O)cc1OC | 5.53 (≈ 11.1 µM) | 25.3 (≈ 50.7 µM) | 5.97 (≈ 11.9 µM) |  |  |  |
| CCCCOc1c(Br)cc(/C=C2\CCC/C(=C\c3ccc([N+](=O)[O-])cc3)C2=O)cc1OC | 8.38 (≈ 16.7 µM) | 41.3 (≈ 82.6 µM) | 27 (≈ 54 µM) |  |  |  |
| CCOc1c(Br)cc(/C=C2\CCC/C(=C\c3cccc([N+](=O)[O-])c3)C2=O)cc1OC | 19.3 (≈ 40.9 µM) | 10.8 (≈ 22.8 µM) | 24.9 (≈ 52.7 µM) |  |  |  |
